In patent US20240300932A1, “N-PHENYLIMINE DERIVATIVE AND PREPARATION METHOD AND USE THEREOF” (Guizhou University, priority 2023, published 2024):

Assays:
Test in all cases: Post-emergence herbicidal activity test (stem and leaf spray, pot culture)
Format in all cases: in vivo
Conditions in all cases: dosage 10 g/mu, 3 weeks after spraying
[1] = tested on: Abutilon theophrasti
In short: (§1)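 Greenhouse pot-grown weeds (loam, pH 7) sprayed post-emergence at 2- to 3-leaf stage with acetone/Tween 80 formulation plus 1.5 liters/ha methyl oleate, at 10, 5 and 2.5 g/mu. Fresh-weight growth control rated 3 weeks later on 0–5 grade scale.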

[2] = tested on: Amaranthus retroflexus
In short: as §1

[3] = tested on: Echinochloa crusgalli
In short: as §1

[4] = tested on: Portulaca oleracea
In short: as §1

[5] = tested on: Setaria viridis
In short: as §1

[6] = tested on: Trifoliumre pensL.
In short: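 Pot-grown weeds in loam (pH 7), greenhouse at 20–30 °C, sprayed once post-emergence at the 2–3-leaf stage. Compound in acetone with Tween 80 plus methyl oleate oil (1.5 L/ha), applied at 10, 5 and 2.5 g/mu by spray tower. Effect scored 3 weeks after spraying, averaged over three repeats.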

Compound | Post-emergence herbicidal activity, A. theophrasti (grade) [1] | Post-emergence herbicidal activity, A. retroflexus (grade) [2] | Post-emergence herbicidal activity, E. crusgalli (grade) [3] | Post-emergence herbicidal activity, P. oleracea (grade) [4] | Post-emergence herbicidal activity, S. viridis (grade) [5] | Post-emergence herbicidal activity, Trifoliumre pensL. (grade) [6]
CCOC(=O)CC(=O)Nc1cc(N2C(=O)C3=C(CCCC3)C2=O)c(F)cc1Cl [Compound D6, 3-((2-chloro-5-(1,3-dioxo-1,3,4,5,6,7-hexahydro-2H-isoindole-2-yl)-4-fluorophenyl)amino)-ethyl 3-oxopropanoate] | 5 (Grade 5: the growth control rate is greater than or equal to 85%) | 5 (Grade 5: the growth control rate is greater than or equal to 85%) | 3 (Grade 3: the growth control rate is greater than or equal to 40% and less than 60%) | 5 (Grade 5: the growth control rate is greater than or equal to 85%) | 3 (Grade 3: the growth control rate is greater than or equal to 40% and less than 60%) | 5 (Grade 5: the growth control rate is greater than or equal to 85%)
CCCCCCCCC(=O)Nc1cc(N2C(=O)C3=C(CCCC3)C2=O)c(F)cc1Cl [Compound D7, N-(2-chloro-5-(1,3-dioxo-1,3,4,5,6,7-hexahydro-2H-isoindole-2-yl)-4-fluorophenyl)nonanamide] | 5 (Grade 5: the growth control rate is greater than or equal to 85%) | 5 (Grade 5: the growth control rate is greater than or equal to 85%) | 3 (Grade 3: the growth control rate is greater than or equal to 40% and less than 60%) | 5 (Grade 5: the growth control rate is greater than or equal to 85%) | 4 (Grade 4: the growth control rate is greater than or equal to 60% and less than 85%) | 5 (Grade 5: the growth control rate is greater than or equal to 85%)
